What was measured:
[1] = biological target: T1, PP1 (Oryctolagus cuniculus, UniProt P62139); assay: DiFMUP assay for PP1; type: biochemical; conditions: 2 mU PP1c, 30 min preincubation, 25°C, DiFMUP, no BSA; mean ± SEM (n = 3–5); read-out: IC50 (Ki) PP1
T1 construct: purchased NewEngland Biolabs; host or cells: E. coli
Procedure: Fig 2 Effect of polyphenolic compounds 8 (A), 9 (B), 10 (C) and 11 (D) on the phosphatase activity of PRL-1, PRL-2, PRL-3, PP1, and PP2A. Proteins were incubated for 30 min with 0–1000 μM of the corresponding procyandin 8–11. Phosphatase activity was measured in the presence of DiFMUP at 25°C using the concentration corresponding to the KM of each protein. The KM for PRLs was determined separately (PRL-3 = 21 μM, PRL-2 and PRL-1 = 24 μM). The KM for PP1 (91 μM) and for PP2A (100 μM) was taken from the literature. Protein concentrations are 50 nM for all PRLs and 2 mU for PP1 and 0.05 U for PP2A (see the Experimental Procedures). Phosphatase activity in the absence of inhibitors was set as 100%. Data represent means ± standard errors of the mean (n = 3–5).
BSA, which is usually supplemented to the assay buffer for stabilizing the PPs was however excluded, as BSA is known to form complexes with polyphenolic compounds [40–42] and thus would decrease the concentrations of the inhibitor in the assay. […] In contrast, the phosphatase activity of PP2A was suppressed to a much lesser extent with weak (for trimer 9 and hexamer 11) and strong statistical significance (dimer 8 and tetramer 10). Thus our results corroborate the data reported previously.
DiFMUP assay for PP1: In a final reaction volume of 100 μL PP1c (2 mU final concentration, according to manufacturer’s instructions) were incubated with decreasing concentrations of the inhibitory polyphenols for 30 minutes at 25°C. The assay buffer contained 25 mM imidazole (pH 7.4), 1 mM dithiothreitol (DTT), and 50 mM NaCl. Bovine serum albumin (BSA) was excluded due to possible binding of the polyphenolic compounds. After the incubation time 20 μL DiFMUP (6,8-Difluoro-4-methylumbelliferyl phosphate) was added to reach a final concentration of 100 μM. Monitoring of the fluorescent dephosphorylation product was monitored and data analyzed as described above.

[2] = test system: PRL-1 overexpressing HEK293 cells; assay: Wound healing assay; type: cell-based; conditions: for cell migration, wound healing: 7 h, PRL-1 overexpressing cells
Procedure: (§1) To study if procyanidin C2 is able to inhibit PRL-1 and PRL-3 in cells, HEK293 cells were treated in a wound-healing assay (see the experimental procedures). […] As a control the empty vector cell line was again utilized. […] The migration speed was for all cell lines similar when treated with 50 μM of 9. To further corroborate these findings we performed additionally a transwell assay as an alternative way to study cell migration.
(§2) Fig 6 Wound healing abilities of PRL-1 or PRL-3 overexpressing or empty vector control HEK293 cell lines were analyzed in the presence of compound 9 or medium only. Cells were seeded at a concentration of 800,000 cells per insert and procyanidin C2 (9) was added at a concentration of 25 and 50 μM. A) Pictures of the wound gaps were taken at 0 h and 7 h for both conditions (with and without treatment). B) Quantification of the wound healing experiment. Speed of migration is shown for combined data from different replicates, as mean ± SD (n = 38–88). Two-sided t-tests with Welsh correction were performed for p < 0.05. ns = not significant;***: < 0.001; **: < 0.01; *: < 0.05. C) Effect of polyphenolic compounds in a transwell assay on the cell migration of HEK293 empty vector and PRL-3 overexpressing cell lines. Cells were seeded at a concentration of 100,000 cells per insert and procyanidin C2 (9) was added at a final concentration of 25 and 50 μM. Migration was allowed for 16 h before harvesting and staining with calcein AM for fluorescent readout. Mean ± SD (n = 60–72) is shown for combined data from different replicates. Two-sided t-tests with Welsh correction were performed for p < 0.05. ns = not significant. D) Quantification of wound healing experiment including blocking PRL-1 and PRL-3 with analog 3. Speed of migration is shown for combined data from different replicates, as mean ± SD (n = 63–82). Two-sided t-tests with Welsh correction were performed for p < 0.05.
(§3) Wound healing experiments were carried out with μ-dish 35mm culture inserts. 8 × 10^5 cells/mL of the respective HEK293 stable cell lines were seeded into each of the two insert wells and allowed to settle for 40 h in the presence of tetracycline. Then the inserts were gently removed and growth medium supplemented with 7.5% FBS and 0.1% tetracycline was added as well as procyanidin C2 (9) or procyanidin B3 (8) at a final concentration of 25, 50 or 75 μM. For the experiment including blocking of PRLs with analog 3, the latter one was added at a final concentration of 35 μM, followed by addition of procyanidin C2 (9) at either 25 or 50 μM final concentration. Negative controls contained growth medium with FBS only. Pictures of the wound gap were taken at 0 h and 7 h time points. A Zeiss Cellobserver HS microscope was used with 10 × magnitude. For data analysis, in each experiment, the distances between both cell fronts at time point 0 h and 7 h were measured by taking 20 different measuring points. Then all the measurements from different replicates (4) for each experiment were combined and analyzed by t-test using Welsh correction in GraphPad Prism. Data are shown with 99% confidence intervals.

[3] = test system: PRL-3 overexpressing HEK293 cells; assay: Wound healing assay; type: cell-based; conditions: for cell migration, wound healing: 7 h, PRL-3 overexpressing cells
Procedure: as §1, §2, §3

[4] = test system: HEK293 empty vector control cell line; assay: Wound healing assay; type: cell-based; conditions: 7 h, empty vector cells
Procedure: as §1, §2, §3

T1 sequence (P62139 whole entry): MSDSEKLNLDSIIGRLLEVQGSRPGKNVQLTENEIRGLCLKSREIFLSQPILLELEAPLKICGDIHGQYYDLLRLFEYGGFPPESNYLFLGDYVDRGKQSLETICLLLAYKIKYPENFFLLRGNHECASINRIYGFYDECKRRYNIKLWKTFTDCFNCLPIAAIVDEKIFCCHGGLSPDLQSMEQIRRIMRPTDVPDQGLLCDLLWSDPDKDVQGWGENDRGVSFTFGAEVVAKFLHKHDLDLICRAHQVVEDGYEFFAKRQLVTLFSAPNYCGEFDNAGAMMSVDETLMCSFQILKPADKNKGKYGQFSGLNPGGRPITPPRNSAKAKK

Oc1cc(O)c2c(c1)O[C@H](c1ccc(O)c(O)c1)[C@@H](O)[C@@H]2c1c(O)cc(O)c2c1O[C@H](c1ccc(O)c(O)c1)[C@@H](O)C2 [Procyanidin B3 (8), Procyanidin B3]
IC50 [1]: 383 ± 43 µM
cell migration, wound healing ([2]; 50 μM): significantly decreased the number of migrating cells
cell migration, wound healing ([2]; 75 μM): further decreased migration
cell migration, wound healing ([3]; 50 μM): did not significantly increase migration behavior
cell migration, wound healing ([3]; 75 μM): did not significantly increase the migration speed
cell migration, wound healing ([4]; 50 μM): did not significantly increase migration behavior
cell migration, wound healing ([4]; 75 μM): did not significantly increase the migration speed

Oc1cc(O)c2c(c1)O[C@H](c1ccc(O)c(O)c1)[C@@H](O)[C@@H]2c1c(O)cc(O)c2c1O[C@H](c1ccc(O)c(O)c1)[C@@H](O)[C@@H]2c1c(O)cc(O)c2c1O[C@H](c1ccc(O)c(O)c1)[C@@H](O)C2 [Procyanidin C2 (9), Procyanidin C2]
IC50 [1]: 88 ± 13.7 µM
migration, wound healing, PRLs blocked with analog 3 ([2]; 25 μM of 9 plus 35 μM analog 3, PRL-1 overexpressing cells): not fully restored to the same level as the empty vector cell line
cell migration, wound healing ([2]; 25 μM): slight drop in cell migration
migration speed, wound healing, PRLs blocked with analog 3 ([2]; 50 μM of 9 plus 35 μM analog 3, PRL-1 overexpressing cells): exactly the same as for the empty vector cell line
cell migration, wound healing ([2]; 50 μM): did not change any further compared to 25 μM
migration, wound healing, PRLs blocked with analog 3 ([3]; 25 μM of 9 plus 35 μM analog 3, PRL-3 overexpressing cells): the same as for the empty vector cell line
cell migration, wound healing ([3]; 25 μM): did not decrease significantly
migration speed, wound healing, PRLs blocked with analog 3 ([3]; 50 μM of 9 plus 35 μM analog 3, PRL-3 overexpressing cells): exactly the same as for the empty vector cell line
cell migration, wound healing ([3]; 50 μM): significant decrease in cell migration
cell migration, wound healing ([4]; 25 μM): slightly increased migration behavior
cell migration, wound healing ([4]; 50 μM): significantly increased the number of migrating cells

From article PMC4520450, “Procyanidins Negatively Affect the Activity of the Phosphatases of Regenerating Liver” (PLoS ONE, 2015)
